Test results: ChEMBL document CHEMBL1201862, “PubChem BioAssay data set” (2004)
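96-well plates; 48 h exposure; 5 concentrations. Endpoints by linear interpolation between flanking doses. Not reached: highest tested concentration assigned. GI50 is the concentration that inhibits growth by half.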 Calls of active or inactive are those of the source. Cut-off read from the data, not from the text of the source: active = GI50 up to about 1.1 µM and inactive = higher. Where a SMILES comes first, the peptide text is derived from it. The star is where a group is joined. Cbz = O=C(OCc1ccccc1)*

What was measured:
Assay in all cases: NCI anticancer screen, dose series, 48 h
[1] = test system: SK-OV-3
[2] = test system: HT-29
[3] = test system: MDA-N
[4] = test system: NCI-H460
[5] = test system: M14
[6] = test system: UACC-62
[7] = test system: CCRF-CEM
[8] = test system: EKVX
[9] = test system: CAKI-1
[10] = test system: Malme-3M
[11] = test system: 786-0
[12] = test system: HOP-62
[13] = test system: SNB-19
[14] = test system: A498
[15] = test system: K562
[16] = test system: SF-539
[17] = test system: MCF7
[18] = test system: TK-10
[19] = test system: HL-60
[20] = test system: IGROV-1

Compound | GI50 [1] | GI50 [2] | GI50 [3] | GI50 [4] | GI50 [5] | GI50 [6] | GI50 [7] | GI50 [8] | GI50 [9] | GI50 [10] | GI50 [11] | GI50 [12] | GI50 [13] | GI50 [14] | GI50 [15] | GI50 [16] | GI50 [17] | GI50 [18] | GI50 [19] | GI50 [20]
COc1ccc(/C=N/n2c(C)n[nH]c2=O)c(OC)c1 | > 100 µM (inactive) | > 100 µM (inactive) | > 100 µM (inactive) | > 100 µM (inactive) | > 100 µM (inactive) | 35.2 µM (inactive) | > 100 µM (inactive) | 83 µM (inactive) | > 100 µM (inactive) | > 100 µM (inactive) | > 100 µM (inactive) | > 100 µM (inactive) | > 100 µM (inactive) | 57.9 µM (inactive) | > 100 µM (inactive) | > 100 µM (inactive) | > 100 µM (inactive) |  |  | 
CCOC(=O)C(CC(=O)OC)NC(=O)C(CC(=O)OC)NC(=O)C(CC(=O)OC)NC(=O)C(CC(=O)OC)NC(=O)OCc1ccccc1 (configuration not stated) (Cbz-D(OMe)D(OMe)D(OMe)D(OMe)-OEt; configuration not given here) |  | > 100 µM (inactive) | > 100 µM (inactive) | > 100 µM (inactive) | > 100 µM (inactive) | > 100 µM (inactive) |  | > 100 µM (inactive) |  | > 100 µM (inactive) | > 100 µM (inactive) | > 100 µM (inactive) | > 100 µM (inactive) | > 100 µM (inactive) | > 100 µM (inactive) |  | > 100 µM (inactive) | > 100 µM (inactive) | > 100 µM (inactive) | > 100 µM (inactive)
NC(=O)CN1CCN(c2nc(N3CCCC3)c3nc(Cl)c(NCc4ccccc4)nc3n2)CC1 | 9.91 µM (inactive) | 9.48 µM (inactive) | 8.67 µM (inactive) | 9.12 µM (inactive) | 9.91 µM (inactive) | 9.2 µM (inactive) | 13.8 µM (inactive) | 11.8 µM (inactive) | 17 µM (inactive) | 8.65 µM (inactive) | 8.89 µM (inactive) | 0.525 µM (active) | 9.89 µM (inactive) |  | 9.86 µM (inactive) | 9.06 µM (inactive) | 8.87 µM (inactive) | 14.2 µM (inactive) | 8.77 µM (inactive) | 12.2 µM (inactive)
Cc1cc(OP2(=O)NCc3ccncc3O2)ccc1Cl (configuration not stated) |  | > 100 µM (inactive) | > 100 µM (inactive) | > 100 µM (inactive) | > 100 µM (inactive) | > 100 µM (inactive) | 44.5 µM (inactive) | > 100 µM (inactive) | > 100 µM (inactive) |  | > 100 µM (inactive) | > 100 µM (inactive) | > 100 µM (inactive) | > 100 µM (inactive) | > 100 µM (inactive) | > 100 µM (inactive) | > 100 µM (inactive) |  |  | > 100 µM (inactive)
CC(C)(O)C1CC[C@]2(C)CC[C@]3(C)[C@H](CC[C@@H]4[C@@]5(C)CC[C@H](O)C(C)(C)[C@@H]5CC[C@]43C)[C@@H]12 (some centres not stated) | 23.1 µM (inactive) | 35.8 µM (inactive) | 47.8 µM (inactive) | 34.8 µM (inactive) | 36.3 µM (inactive) | 39 µM (inactive) | 74.1 µM (inactive) | 23.2 µM (inactive) | 22.1 µM (inactive) | 28.6 µM (inactive) | 25.2 µM (inactive) | 25.8 µM (inactive) | 68.7 µM (inactive) |  | 82.6 µM (inactive) | 23.4 µM (inactive) | 34.6 µM (inactive) | 27.5 µM (inactive) | > 100 µM (inactive) | 33.3 µM (inactive)
COc1cc2c(cc1O)c(O)cc1c3cc(OC)c(OC)cc3c[n+](C)c21 | > 100 µM (inactive) | 15.2 µM (inactive) | 17.7 µM (inactive) | 15.9 µM (inactive) | > 100 µM (inactive) | 4.34 µM (inactive) | 1.37 µM (inactive) | > 100 µM (inactive) | > 54 µM (inactive) | 32.9 µM (inactive) | 7.4 µM (inactive) | 34.1 µM (inactive) | 1.13 µM (inactive) | > 100 µM (inactive) | 5.04 µM (inactive) | 3.65 µM (inactive) | 8.73 µM (inactive) | > 100 µM (inactive) |  | 
Cc1ccc(S(=O)(=O)N/N=C2\C=C[C@]3(CC2)C(=O)N(C)c2ccccc23)cc1 | > 100 µM (inactive) |  | > 100 µM (inactive) | > 100 µM (inactive) | > 100 µM (inactive) | > 100 µM (inactive) | > 100 µM (inactive) | > 100 µM (inactive) | > 100 µM (inactive) |  | 33.5 µM (inactive) | > 100 µM (inactive) | > 100 µM (inactive) | > 100 µM (inactive) | > 100 µM (inactive) |  | > 100 µM (inactive) |  | > 100 µM (inactive) | > 100 µM (inactive)
CN1CCN(c2cc3[nH]c(-c4ccc(Cl)cc4)nc3cc2F)CC1 | 22.2 µM (inactive) |  | 12.8 µM (inactive) | 11.5 µM (inactive) | 2.84 µM (inactive) | 4.32 µM (inactive) | 13.4 µM (inactive) | 22.2 µM (inactive) | 19.5 µM (inactive) | 10.5 µM (inactive) | 20.1 µM (inactive) | 16.8 µM (inactive) | 21.3 µM (inactive) | 18.2 µM (inactive) | 3.78 µM (inactive) |  | 7.82 µM (inactive) | 4.37 µM (inactive) | > 10 µM (inactive) | 15.7 µM (inactive)
O=C(NC1=C(Cl)C(=O)c2ccccc2C1=O)c1ccccc1 |  | 29.3 µM (inactive) | 5.04 µM (inactive) | 40.3 µM (inactive) | 50.8 µM (inactive) | 24.1 µM (inactive) | 30.9 µM (inactive) | > 100 µM (inactive) |  | 16.9 µM (inactive) | 45.4 µM (inactive) | 85.3 µM (inactive) | 54.2 µM (inactive) |  | 21.8 µM (inactive) | 50.6 µM (inactive) | 19.2 µM (inactive) | 23 µM (inactive) | 34.8 µM (inactive) | 21.8 µM (inactive)
CN(C)CCO/N=C1/C=C2CC[C@H]3[C@@H]4CC[C@H](O)[C@@]4(C)CC[C@@H]3[C@@]2(C)CC1 | 8.67 µM (inactive) | 1.05 µM (active) | 3.72 µM (inactive) | 7.11 µM (inactive) | 8.26 µM (inactive) | 10.9 µM (inactive) | 6.89 µM (inactive) | 15.6 µM (inactive) | 31.9 µM (inactive) |  | 8.85 µM (inactive) | 12.1 µM (inactive) | 27.4 µM (inactive) | 15.7 µM (inactive) | 6.22 µM (inactive) | 3.51 µM (inactive) | 22.8 µM (inactive) | 11.1 µM (inactive) |  | 6.95 µM (inactive)
COc1ccc2[nH]cc(C(=O)C(=O)NC34CC5CC(CC(C5)C3)C4)c2c1 | 73.3 µM (inactive) | 2.08 µM (inactive) | 84.7 µM (inactive) | 7.31 µM (inactive) | 13.9 µM (inactive) | 23.8 µM (inactive) | 9.48 µM (inactive) | > 50.1 µM (inactive) | > 45.4 µM (inactive) | 46.9 µM (inactive) | 8.09 µM (inactive) | 16.5 µM (inactive) | 53.5 µM (inactive) | 43.8 µM (inactive) | 4.44 µM (inactive) | 14 µM (inactive) | 10.1 µM (inactive) | 48.8 µM (inactive) |  | 58.3 µM (inactive)
COc1ccc(C(=O)c2cc(OC)c(OC)c(OC)c2)cc1OC |  | 3.1 µM (inactive) | 0.618 µM (active) | 3.34 µM (inactive) | 8.83 µM (inactive) | 4.57 µM (inactive) | 4.37 µM (inactive) | > 100 µM (inactive) |  | 5.93 µM (inactive) | 4.98 µM (inactive) | 4.57 µM (inactive) | 3.21 µM (inactive) |  | 2.28 µM (inactive) | 2.32 µM (inactive) | 2.24 µM (inactive) | > 100 µM (inactive) | 2.67 µM (inactive) | 9.68 µM (inactive)
Cc1ccc2nc3c(=O)[nH]c(=O)nc-3n(C)c2c1C | > 100 µM (inactive) | > 100 µM (inactive) | > 100 µM (inactive) | > 100 µM (inactive) | > 100 µM (inactive) | > 100 µM (inactive) | > 100 µM (inactive) | > 100 µM (inactive) | > 100 µM (inactive) | > 100 µM (inactive) | > 100 µM (inactive) | > 100 µM (inactive) | > 100 µM (inactive) |  | > 100 µM (inactive) | > 100 µM (inactive) | > 100 µM (inactive) | > 100 µM (inactive) | > 100 µM (inactive) | > 100 µM (inactive)
COC(=O)C1=C(C)NC(C)=C(C(=O)OC)C1c1cccc(NO)c1 | > 100 µM (inactive) | 16 µM (inactive) | 15.1 µM (inactive) | 15.1 µM (inactive) | 18.9 µM (inactive) | 17.5 µM (inactive) | 3.79 µM (inactive) | 22.2 µM (inactive) | 13.2 µM (inactive) | 16.4 µM (inactive) | 15 µM (inactive) | 32.3 µM (inactive) | > 100 µM (inactive) | > 100 µM (inactive) | 4.76 µM (inactive) | 17.4 µM (inactive) | 19 µM (inactive) | 14.2 µM (inactive) |  | 16.7 µM (inactive)
CC[C@H]1C=CCC[C@@]2(C[C@@H]3CC[C@@H]4[C@H](C(=O)OCCCCCCCCCCCCCCCC(=O)N(CCCN)CCCCN)[C@]5(CCC[C@@H](C)O5)NC(=[N+]34)N2)O1 | 0.136 µM (active) | 0.0364 µM (active) | 0.0121 µM (active) | 0.0301 µM (active) | < 0.01 µM (active) | 0.0185 µM (active) | 0.0151 µM (active) | 0.11 µM (active) | 0.0908 µM (active) | 0.04 µM (active) | 0.0229 µM (active) | 0.0415 µM (active) | 0.381 µM (active) | 1.56 µM (inactive) | 0.0299 µM (active) | 0.0679 µM (active) | 0.0684 µM (active) | 1.23 µM (inactive) |  | 0.0695 µM (active)
